In article PMC4434909, “In vitro properties of designed antimicrobial peptides that exhibit potent antipneumococcal activity and produces synergism in combination with penicillin” (Scientific Reports, 2015):
“Also recorded” adds a separate entry of the source. Like-named read-outs stand apart in the source and are kept apart here. Where no end group is shown, it is not given here.

How the values were obtained:
[1] = tested on: MRSA; assay type: cell-based, methicillin-resistant S. aureus
Source text: (§1) All bacterial strains were obtained from Department of Medical Microbiology, University of Malaya. Clinical isolates were previously obtained from University of Malaya Medical Centre and maintained in the laboratory. Sheep blood agar was used for pneumococcal cultivation purpose. Nutrient agar was used for cultivating E. coli ATCC 25922, S. aureus ATCC 25923, and P. aeruginosa ATCC 15442, Acinetobacter baumanii ATCC 15308, and one clinical isolate for each MRSA, E. cloacae, Citrobacter spp., and K. pneumoniae. For antimicrobial testing, Mueller-Hinton agar (MHA) and cationically-adjusted MHB (CAMHB) were prepared according to the Clinical and Laboratory Standard Institute guidelines. MHA for S. pneumoniae was supplemented with 5% (v/v) defibrinated sheep blood and 5% laked horse blood for CAMHB. All bacterial cultures were stored in multiple vials in brain heart infusion broth supplemented with 10% (v/v) glycerol at −80°C to avoid repeated freeze-thawed cycles on the cells. All freeze-stocked strains were passaged twice prior to experimentation.
(§2) Procedures were performed to determine the MIC of peptides according to the CLSI guidelines[21] against 60 pneumococcal isolates which consisted of 20 isolates each for PRSP, PISP, and PSSP. Strains were grown for 18–24 hrs at 37°C under 5% CO2. Direct suspension of the colonies were made in CAMHB and adjusted to OD625 0.08–0.1 which corresponds to 1 ~ 2 × 10^8 CFU/ml followed by serial ten-fold dilutions to give 1 × 10^6 CFU/ml. Fifty microliters of bacterial suspension was then aliquoted to 96-well round bottom microtiter plates containing equal volume of serially diluted peptides to give final concentrations of peptides encompassing the range of 1.96–250 μg/ml. […] The plates were incubated for 18–24 hrs at 37°C under 5% CO2. MIC was read as the concentration of peptide producing complete inhibition on the visible growth of the test organism. Results were pooled from three independent experiments. MIC range was defined as the range of concentrations where the peptides produce detectable antimicrobial activity. Effective percentage (EP) was the proportion of pneumococcal isolates inhibited within the MIC range. Since the isolates tested were obtained prior to 2008 where major revision in antibiotic susceptibility breakpoints were introduced, thus the pneumococci were defined according to the PEN susceptibility breakpoint (prior 2008) which corresponds to the PEN (oral penicillin V) breakpoint of the revised criteria.
The broad spectrum antibacterial activity of the peptides against a panel of eight clinically important bacteria was also determined, this includes S. aureus ATCC 25923, E. coli ATCC 25922, P. aeruginosa ATCC 15442, A. baumanii ATCC 15308, and one clinical isolate each for MRSA, E. cloacae, Citrobacter spp., and K. pneumoniae.

[2] = tested on: PRSP; assay: Transmission electron microscopy of treated pneumococci; assay type: cell-based, Streptococcus pneumoniae; details: PRSP 5 × 10^10 CFU/ml, peptides 8 mg/ml, four hours 37°C 5% CO2
Procedure: An overnight culture of PRSP on sheep blood agar was passaged twice and directly suspended in CAMHB. As sample for TEM required high cell density of about 10^8 to 10^10 to be viewable, the bacteria was prepared to 5 × 10^10 CFU/ml and treated with supra-concentration of peptides at 8 mg/ml for four hours at 37°C under 5% CO2. Cells treated with only water was served as the untreated control. For TEM sample preparation, standard protocol provided by the Electron Microscopic Unit, Faculty of Medicine, University of Malaya was followed. The cells were washed twice with CAMHB before overnight fixation in 4% (v/v) glutaraldehyde, two times postfix washes with cacodylate buffer, incubate, two hours incubation with osmium tetroxide buffer (OsO4 1: 1 cacodylate), and washed twice with cacodylate buffer before overnight incubation in the same buffer. Next, the samples were washed twice with double distilled water, 10 min of uranyl acetate incubation, and washed twice with double distilled water before subjected to dehydration by gradual ethanol series: 35% for 10 min, 50% for 10 min, 70% for 10 min, 95% for 15 min, and three rounds of absolute (100%) ethanol for 15 min. Following this, samples were incubated with two rounds of propylene oxide for 15 min, propylene oxide 1:1 Epon for 1 hr, propylene oxide 1:3 Epon for 2 hrs, overnight incubation with Epon, embedded in Agar 100 resin at 37°C for five hours, and maintained in 60°C until viewing. Ultrathin sectioning were prepared on Reichert Ultramicrotome, copper grids 3.05 mm (300 square mesh) (Agar Scientific), and stained with ethanol-based uranyl acetate and lead citrate for 5 min. The prepared samples were viewed with Leo Libra 120 under standard operating conditions.

[3] = tested on: penicillin-susceptible S. pneumoniae (PSSP); assay type: cell-based, Streptococcus pneumoniae; details: for MIC, PSSP: MIC range over 20 PSSP isolates, CLSI broth microdilution, CAMHB with 5% laked horse blood, 18–24 hrs 37°C 5% CO2, peptides 1.96–250 μg/ml, three independent experiments; for EP %, PSSP: effective percentage: proportion of isolates inhibited within the MIC range
Source text: as §1, §2

[4] = tested on: penicillin-intermediate S. pneumoniae (PISP); assay type: cell-based, Streptococcus pneumoniae; details: for MIC, PISP: MIC range over 20 PISP isolates, CLSI broth microdilution, CAMHB with 5% laked horse blood, 18–24 hrs 37°C 5% CO2, peptides 1.96–250 μg/ml, three independent experiments; for EP %, PISP: effective percentage: proportion of isolates inhibited within the MIC range
Source text: as §1, §2

[5] = tested on: S. pneumoniae; assay type: cell-based, Streptococcus pneumoniae; details: for Overall EP: proportion of the 60 pneumococcal isolates inhibited within the MIC range
Source text: as §1, §2

[6] = Gram-positive, clinical isolate, broth microdilution, CAMHB, peptides 1.96–250 μg/ml

Substance	MIC, MRSA ([1]; methicillin-resistant)	changes in pneumococcal cell morphology (TEM) [2]	MIC, PSSP [3]	EP %, PSSP [3]	MIC, PISP [4]	EP %, PISP [4]	Overall MIC [5]	Overall EP [5]	MIC, MRSA [1, 6]
GLFDIWAWWRWRR-NH2 [DM2]	62.5 µg/mL	filamentous and stacked at one pole of the cell	15.63 to 250 µg/mL	(100.0) %	7.81 to 250 µg/mL	(100.0) %	7.81 to 250 µg/mL	100.0%	–
GLFDIWKKWRWRR-NH2 [DM4]	–	Loss of cell wall fragments	15.63 to 125 µg/mL	(100.0) %	15.63 to 125 µg/mL	(100.0) %	15.63 to 125 µg/mL	100.0%	62.5 µg/mL
GLFDKWAWWRWRR-NH2 [DM1]	–	formation of cytoplasmic-containing inclusion bodies	62.5 to 250 µg/mL	(100.0) %	31.3 to 125 µg/mL	(100.0) %	31.3 to 250 µg/mL	100.0%	62.5 µg/mL
GLFDIWKKLRWRR-NH2 [DM5]	62.5 µg/mL	Loss of cell wall fragments; also recorded: formation of cytoplasmic-containing inclusion bodies	15.63 to 125 µg/mL	(100.0) %	15.63 to 125 µg/mL	(100.0) %	15.63 to 125 µg/mL	100.0%	–
GLFDIWKWWRWRR-NH2 [DM3]	7.81 µg/mL	formation of cytoplasmic-containing inclusion bodies	7.81 to 62.5 µg/mL	(100.0) %	7.81 to 62.5 µg/mL	(100.0) %	7.81 to 62.5 µg/mL	100.0%	–
